Reference: US20240424146A1, “DRUG SCREENING METHOD AND MODEL FOR MONITORING PLATINUM-RESISTANT OVARIAN CANCER TUMOR GROWTH AND METASTASES” (THE BOARD OF REGENTS OF THE UNIVERSITY OF OKLAHOMA, priority 2023, published 2024)

Test system: OVCAR-8 CPR Luc cells
Assay: cisplatin dose response, cell viability by MTS assay
Format: cell-based, human
Conditions: non-linear regression, FIG. 1
Method: Cells were treated with increasing doses of cisplatin and cell viability was measured using the MTS assay. IC50 values were calculated using non-linear regression analysis in GraphPad Prism software.
Next, we confirmed that these cells retained their inherent response to cisplatin. […] To determine if luciferase activity could be visualized in vitro we plated the OVCAR-8 CPR Luc cells in 2-dimensional (2D) adherent and suspended three-dimensional (3D) spheroid conditions.

## N.N.[Cl][Pt][Cl] [cisplatin]
  IC50 of OVCAR-8 CPR Luc cells to cisplatin relative to cisplatin-sensitive cells (OVCAR-8 Luc): twice
